Usually melting point stands for the temperature of the solid-liquid transition.

`CC(C)S(=O)(=O)NCC(C)(F)c1ccc(-c2cccc3c2CC(=O)N3)cc1` (stereo not shown) [Example 9, 4-[4-(1-fluoro-1-methyl-2-{[methylethyl)sulfonylamino}-ethyl)phenyl]indolin-2one] had a melting point of 86 to 87 °C.

For the origin of these results see patent US20030220369A1, “Heterocyclic sulfonamide derivatives and their use for potentiating glutamate receptor function” (priority 2003, published 2003).
